# Source: patent US20240024261A1, “PHARMACEUTICAL COMPOSITION FOR IMPROVING COGNITIVE ABILITY OR ENHANCING MEMORY” (DR. RAYMOND LAB INC, priority 2020, published 2024)
# Where “and” joins values, the source holds several entries; their conditions need not be identical. Equal entries are not always repeated. Where two headings read alike, the source gives them in different places.
# What was measured:
# TNF-α = assay: Inflammatory cytokine TNF-α in hippocampus (ELISA); format: in vivo, mouse; conditions: scopolamine, mean ± standard error
# Experimental: (§1) On the next day of the end of the passive avoidance test, the test material was administered, and the objects were allowed to stand in a home cage for 30 minutes. Subsequently, Scopolamine was intraperitoneally administered at a dose of 1 mg/kg, and then the objects were allowed to stand in a home cage for 30 minutes.
# (§2) A brain tissue was separately separated and stored at −70° C. until analysis.
# Inflammatory cytokine in a brain tissue was measured with a supernatant liquid obtained by adding a tissue protein extraction reagent (Biovision, CA, USA) to a brain tissue, crushing it, and centrifuging it, using an ELISA Kit (R&D System, MN, USA).
# ICR mouse = assay: Passive avoidance test in scopolamine-treated mice; format: in vivo; conditions: scopolamine i.p., mean ± standard error
# Experimental: Each material prepared in the preparation example was prepared so that each may be orally administered to 7 experimental groups in the following and Table 1.
# In the following Table 1, only the excipient prepared in the preparation examples was orally administered to a normal control group and a negative control group, respectively, scopolamine was administered to the remaining experimental groups (G2-G7) other than the normal control group (G1) in the behavioral experiment of Test Example 4 to cause cognitive function decline and a memory impairment effect, and then the behavior was observed.
# After the test material (drug) of Test Example 3 was administered to each experimental group during the test, a passive avoidance test was performed, and change in mouse behavior was observed.
# After each of the test materials was administered to each experimental group of Table 1 of Test Example 3, the passive avoidance test was performed on day 25 by the following procedure: • a) The object was put into an unlit white room of a conditioning box for the passive avoidance test, and then was adapted for 60 seconds. • b) A guillotine door was opened simultaneously with turning on a LED light of the white room, and the object was allowed to explore a dark room for 180 seconds for adaptation. • c) On the next day (day 26) also, the above process was performed and repeated once more, and the object was adapted so that it took around 30 seconds to enter the dark room after turning on the LED light. • d) After administering the drug 1 hour before learning on day 27, 4 mL/kg of Scopolamine which was dissolved at 0.25 mg/mL in a 0.9% saline solution was intraperitoneally administered to the objects of the remaining experimental groups other than the normal control group (G1), respectively, after 30 minutes, and the objects were allowed to stand for 30 minutes in the breeding box. • e) 30 minutes after administering Scopolamine, the objects were put into the unlit white room, the guillotine door was opened simultaneously with turning on the LED light after 10 seconds. When all of the four legs of the objects entered to the dark room, the guillotine door was closed, the time spent (latency time) was measured with a timer, and electrical stimulation was given at 0.5 mA for 3 seconds.
# [1] = Body weight during the test; format: in vivo, mouse; conditions: mean ± standard error
# Experimental: For all objects of each experimental group, when drug administration started, the body weight was measured twice a week from the start of administration until the end of the experiment, and was measured on the date of the final autopsy.
# [2] = tested on: Acetylcholine esterase (AchE); format: in vivo; conditions: forebrain, scopolamine, mean ± standard error
# Experimental: as §1, §2
# Acetylcholine esterase (AchE) activity was measured with a supernatant liquid obtained by adding a tissue protein extraction reagent (Biovision, CA, USA) to a forebrain tissue, crushing it, and centrifuging it, using an acetylcholinesterase activity assay kit (Biovision, CA, USA).
# ceramide = assay: Ceramide content in brain tissue (forebrain); format: in vivo, mouse; conditions: for Ceramide content, N-acyl chain length C14 / Ceramide content, N-acyl chain length C16 / Ceramide content, N-acyl chain length C18 / Ceramide content, N-acyl chain length C20 / Ceramide content, N-acyl chain length C22 / Ceramide content, N-acyl chain length C24 / Ceramide content, N-acyl chain length C24:1 / Ceramide content, N-acyl chain length C26 / Ceramide content, N-acyl chain length C26:1 / Ceramide content, Total: Neuromide 100 mg/kg oral, scopolamine
# Experimental: Two types of forebrain parts of experimental groups G1, G2, and G5 in the brain tissues separated above were secured, respectively.
# The ceramide contents were analyzed therefrom, and the average and the deviation thereof were calculated.
# At this time, the measurement of the ceramide content was performed by confirmation and quantitative method of ceramide commonly known to a person skilled in the art.
# acetylcholine = assay: Acetylcholine content in hippocampus after passive avoidance test; format: in vivo, mouse; conditions: scopolamine, mean ± standard error
# Experimental: as §1, §2
# A choline assay buffer (Biovision, CA, USA) was added to a hippocampal tissue of the separated brain, crushed, and then centrifuged to obtain a supernatant liquid, which was used in the test.
# The amount of acetylcholine in the supernatant liquid was measured using a choline/acetylcholine quantification kit (Biovision, CA, USA).
# [3] = Average of two forebrain samples
# [4] = individual forebrain samples 5-2, 5-3, listed as Example 3
smiles,measurement,setting,value
"CCCCCCCCCCCCCCCC(=O)NC(CO)CO [Neuromide, N-palmitoyl serinol]",TNF-α,TNF-α; Neuromide 16 mg/kg oral,211.5 pg/mg tissue protein and 211.5 ± 25.3 pg/mg tissue protein
same,TNF-α,TNF-α; Neuromide 40 mg/kg oral,196.2 pg/mg tissue protein and 196.2 ± 28.4 pg/mg tissue protein
same,TNF-α,TNF-α; Neuromide 100 mg/kg oral,189.2 pg/mg tissue protein and 189.2 ± 33 pg/mg tissue protein
same,Passive avoidance test Time taken (latency time),ICR mouse; Neuromide 16 mg/kg oral,22.3 s and 22.3 ± 3.6 s
same,Passive avoidance test Time taken (latency time),ICR mouse; Neuromide 40 mg/kg oral,31 s and 31 ± 8.9 s
same,Passive avoidance test Time taken (latency time),ICR mouse; Neuromide 100 mg/kg oral,35.7 s and 35.7 ± 11.5 s
same,Weight,"[1]; Neuromide 16 mg/kg oral, day 0 after administration",34.9 ± 0.4 g
same,Weight,"[1]; Neuromide 16 mg/kg oral, day 1 after administration",35.1 ± 0.4 g
same,Weight,"[1]; Neuromide 16 mg/kg oral, day 5 after administration",35.9 ± 0.4 g
same,Weight,"[1]; Neuromide 16 mg/kg oral, day 8 after administration",36.4 ± 0.5 g
same,Weight,"[1]; Neuromide 16 mg/kg oral, day 12 after administration",36.4 ± 0.5 g
same,Weight,"[1]; Neuromide 16 mg/kg oral, day 15 after administration",36.3 ± 0.6 g
same,Weight,"[1]; Neuromide 16 mg/kg oral, day 19 after administration",37.3 ± 0.7 g
same,Weight,"[1]; Neuromide 16 mg/kg oral, day 22 after administration",37.2 ± 1^ g
same,Weight,"[1]; Neuromide 16 mg/kg oral, day 26 after administration",37.2 ± 0.8 g
same,Weight,"[1]; Neuromide 16 mg/kg oral, day 29 after administration",37.1 ± 0.9 g
same,Weight,"[1]; Neuromide 40 mg/kg oral, day 0 after administration",34.9 ± 0.4 g
same,Weight,"[1]; Neuromide 40 mg/kg oral, day 1 after administration",35.5 ± 0.4 g
same,Weight,"[1]; Neuromide 40 mg/kg oral, day 5 after administration",36 ± 0.3 g
same,Weight,"[1]; Neuromide 40 mg/kg oral, day 8 after administration",36.7 ± 0.4 g
same,Weight,"[1]; Neuromide 40 mg/kg oral, day 12 after administration",37.2 ± 0.4 g
same,Weight,"[1]; Neuromide 40 mg/kg oral, day 15 after administration",37.5 ± 0.4 g
same,Weight,"[1]; Neuromide 40 mg/kg oral, day 19 after administration",37.8 ± 0.4 g
same,Weight,"[1]; Neuromide 40 mg/kg oral, day 22 after administration",38 ± 0.4 g
same,Weight,"[1]; Neuromide 40 mg/kg oral, day 26 after administration",38.3 ± 0.4 g
same,Weight,"[1]; Neuromide 40 mg/kg oral, day 29 after administration",37.9 ± 0.5 g
same,Weight,"[1]; Neuromide 100 mg/kg oral, day 0 after administration",34.9 ± 0.4 g
same,Weight,"[1]; Neuromide 100 mg/kg oral, day 1 after administration",35.3 ± 0.5 g
same,Weight,"[1]; Neuromide 100 mg/kg oral, day 5 after administration",36.2 ± 0.5 g
same,Weight,"[1]; Neuromide 100 mg/kg oral, day 8 after administration",36.7 ± 0.7 g
same,Weight,"[1]; Neuromide 100 mg/kg oral, day 12 after administration",37.6 ± 0.5 g
same,Weight,"[1]; Neuromide 100 mg/kg oral, day 15 after administration",38 ± 0.6 g
same,Weight,"[1]; Neuromide 100 mg/kg oral, day 19 after administration",38.6 ± 0.6 g
same,Weight,"[1]; Neuromide 100 mg/kg oral, day 22 after administration",38.4 ± 0.7 g
same,Weight,"[1]; Neuromide 100 mg/kg oral, day 26 after administration",38.8 ± 0.6 g
same,Weight,"[1]; Neuromide 100 mg/kg oral, day 29 after administration",38.9 ± 0.8 g
same,Acetylcholinesterase (AchE) activity,[2]; Neuromide 16 mg/kg oral,7.17 mU/mg tissue protein and 7.17 ± 1.75 mU/mg tissue protein
same,Acetylcholinesterase (AchE) activity,[2]; Neuromide 40 mg/kg oral,7.79 mU/mg tissue protein and 7.79 ± 1.93 mU/mg tissue protein
same,Acetylcholinesterase (AchE) activity,[2]; Neuromide 100 mg/kg oral,6.19 mU/mg tissue protein and 6.19 ± 1.84 mU/mg tissue protein
same,"Ceramide content, N-acyl chain length C14",ceramide; [3],2.71
same,"Ceramide content, N-acyl chain length C16",ceramide; [3],284.09
same,"Ceramide content, N-acyl chain length C18",ceramide; [3],3956.61
same,"Ceramide content, N-acyl chain length C20",ceramide; [3],92.88
same,"Ceramide content, N-acyl chain length C22",ceramide; [3],51.78
same,"Ceramide content, N-acyl chain length C24",ceramide; [3],68.30
same,"Ceramide content, N-acyl chain length C24:1",ceramide; [3],453.42
same,"Ceramide content, N-acyl chain length C26",ceramide; [3],11.09
same,"Ceramide content, N-acyl chain length C26:1",ceramide; [3],4.59
same,"Ceramide content, Total",ceramide; [3],4925.46
same,ceramide synthesis amount,"ceramide; forebrain, Neuromide 100 mg/kg",significantly increased
same,"Ceramide content, N-acyl chain length C14",ceramide; [4],2.92 and 2.50
same,"Ceramide content, N-acyl chain length C16",ceramide; [4],288.68 and 279.51
same,"Ceramide content, N-acyl chain length C18",ceramide; [4],3980.71 and 3932.52
same,"Ceramide content, N-acyl chain length C20",ceramide; [4],94.95 and 90.81
same,"Ceramide content, N-acyl chain length C22",ceramide; [4],60.05 and 43.51
same,"Ceramide content, N-acyl chain length C24",ceramide; [4],77.31 and 59.29
same,"Ceramide content, N-acyl chain length C24:1",ceramide; [4],498.48 and 408.35
same,"Ceramide content, N-acyl chain length C26",ceramide; [4],12.46 and 9.72
same,"Ceramide content, N-acyl chain length C26:1",ceramide; [4],4.78 and 4.40
same,"Ceramide content, Total",ceramide; [4],5020.32 and 4830.60
same,Acetylcholine,acetylcholine; Neuromide 16 mg/kg oral,1.1 Nmol/mg protein and 1.1 ± 0.1 Nmol/mg protein
same,Acetylcholine,acetylcholine; Neuromide 40 mg/kg oral,1.1 Nmol/mg protein and 1.1 ± 0.3 Nmol/mg protein
same,Acetylcholine,acetylcholine; Neuromide 100 mg/kg oral,1.5 Nmol/mg protein and 1.5 ± 0.2 Nmol/mg protein
